The values that follow come from patent US20230293482A1, “CENTRAL NERVOUS SYSTEM POTENTIATING COMPOSITION” (priority 2020, published 2023).

Experiment [1] concerns Wistar male rats. In words: Blood flow of the cremasteric arteriole, 50% effective dose. The class given is in vivo. The following applies: 1, 10, 100, 1000 μg/kg of body weight intragastric, 60 minutes after administration, laser Doppler. As to the method: Cannula was inserted into the stomach of Wistar male rats under anesthesia, and the cremaster muscle was prepared, Not only a dimer, a trimer or a tetramer obtained by condensing (2R,3R)-2-(3,4-dihydroxyphenyl)-3,4-dihydro-2H-chromene-3,5,7-triol by a 4β→8 bond, 2-(3,4-dihydroxylphenyl)chromenylium-3,5,7-triol, or 2-(3,4,5-trihydroxyphenyl)chromenylium-3,5,7-triol, but also (2R,3R)-2-(3,4-dihydroxyphenyl)-3,4-dihydro-2H-chromene-3,5,7-triol, 2-(3,4-hydroxyphenyl-3,5,7-trihydroxy-4H-1-benzopyran-4-one (quercetin), (2R,3R)-5,7-dihydroxy-2-(3,4,5-trihydroxyphenyl)-3,4-dihydro-2H-chromen-3-yl] 3,4,5-trihydroxybenzoate (EGCG), (2S)-5-hydroxy-2-(3-hydroxy-4-methoxyphenyl)-7-[(2S,3R,4S,5S,6R)-3,4,5-trihydroxy-6-[[(2R,3R,4R,5R,6S)-3,4,5-trihydroxy-6-methylaxan-2-yl]oxymethyl]oxan-2-yl]oxy-2,3-dihydrochromen-4-one (hesperidin), 7-hydroxy-3(4-hydroxyphenyl)chromen-4-one (daidzein), (1E,6E)-1,7-bis(4-hydroxy-3-methoxyphenyl)hepta-1,6-diene-3,5-dione (curcumin), 5-[(E)-2-(4-hydroxyphenypenyl)ethenyl]-1,3-benzenediol (resveratrol), and (2R,3R)-2-(4-hydroxyphenyl)-3-(3,5-dihydroxyphenyl)-6-[(E)-4-hydroxystyryl]-2,3-dihydrobenzofuran-4-ol (Gnefin C), were administered to the rats at doses of 1, 10, 100, and 1000 μg/kg of body weight. A fluctuation in the blood flow of the cremasteric arteriole 60 minutes after the administration was measured using a laser Doppler blood-flowmeter. […] The 50% effective dose of the compound obtained by condensing (2R,3R)-2-(3,4-dihydroxyphenyl)-3,4-dihydro-2H-chromene-3,5,7-triol by a 4β→8 bond was in the range of 1 to 30 μg/kg of body weight, whereas the 50% effective dose of 2-(3,4-dihydroxyphenyl)chromenylium-3,5,7-triol or 2-(3,4,5-trihydroxylphenyl)chromenylium-3,5,7-triol was in the range of 50 to 100 μg/kg of body weight.

A further experiment has as its system C57BL/6 male mice. The experiment can be described thus: Open field locomotor activity / wakening after single administration. The following applies: 25 μg/kg of body weight, open field 60 minutes; for locomotor activity: compared with control group; for wakening state: control animals repeated sleeping and wakening. It counts as in vivo.
A further experiment concerns healthy volunteers. In words: Astringency sensory test, solutions held in oral cavity. It counts as in vivo, human. The conditions noted are these: for concentration at which astringency is exhibited in almost all cases: gradually diluted solutions held in oral cavity, ten healthy volunteers; for astringency felt on oral ingestion: compared with other polyphenol compounds. The source says:
Ten healthy volunteers held in their oral cavity, solutions obtained by gradually diluting (2R,3R)-2-(3,4-dihydroxyphenyl)-3,4-dihydro-2H-chromene-3,5,7-triol, and a dimer, a trimer or a tetramer obtained by condensing the above compound by a 4β→8 bond, 2-(3,4-dihydroxyphenyl)chromenylium-3,5,7-triol or 2-(3,4,5-trihydroxylphenyl)chromenylium-3,5,7-triol, 2-(3,4-hydroxyphenyl-3,5,7-trihydroxy-4H-1-benzopyran-4-one (quercetin), (2R,3R)-5,7-dihydroxy-2-(3,4,5-trihydroxyphenyl)-3,4-dihydro-2H-chromen-3-yl] 3,4,5-trihydroxybenzoate (EGCG), (2S)-5-hydroxy-2-(3-hydroxy-4-methoxyphenyl)-7-[(2S,3R,4S,5S,6R)-3,4,5-trihydroxy-6-[[(2R,3R,4R,5R,6S)-3,4,5- trihydroxy-6-methyloxan-2-yl]oxymethyl]oxan-2-yl]oxy -2,3-dihydrochromen-4-one (hesperidin), 7-hydroxy-3-(4-hydroxyphenyl)chromen-4-one (daidzein), and (1E,6E)-1,7-bis(4-hydroxy-3-methoxyphenyl)hepta-1,6-diene-3,5-dione (curcumin), and the concentrations at which the volunteers felt astringency were then observed.

In experiment [2] the test system is Wistar male rats. The experiment can be described thus: Blood pressure after repeated administration with/without N-acetylcysteine. The class given is in vivo. The protocol: Wistar male rats were divided into 4 groups, and thereafter, 2-(3,4-dihydroxyphenyl)-3-(D-glucopyranooxyl)chromenylium-3,5,7-triol (1 mg/kg of body weight) and/or N-acetylcysteine (100 mg/kg of body weight) were co-administered to the laboratory animals for 14 days. Thereafter, the blood pressure of the animals was measured over time, using a non-heated type sphygmomanometer.

The test system of experiment [3] is Wistar male rats. The experiment can be described thus: Neovascularization, CD31 immunostaining of muscle. The following applies: 1 mg/kg of body weight for 14 days, compared with control group. It counts as in vivo. As to the method:
Wistar male rats were divided into 2 groups, and thereafter, a tetramer of 2-(3,4-dihydroxyphenyl)-3-(D-glucopyranooxyl)chromenylium-3,5,7-triol (1 mg/kg of body weight) was co-administered. to the laboratory animals for 14 days, Thereafter, the animals were subjected to dissection. A frozen section was prepared from the excised extensor digitorum longus muscle or soleus muscle, and CD31 serving as a neovascularization marker was then detected by applying an immunostaining method.

`Oc1cc(O)c2c(c1)O[C@H](c1ccc(O)c(O)c1)[C@H](O)[C@H]2c1c(O)cc(O)c2c1O[C@H](c1ccc(O)c(O)c1)[C@H](O)C2` [dimer]: in the experiment on Wistar male rats [1], the “fluctuation in the blood flow of the cremasteric arteriole” value (“fluctuation in the blood flow” below) was “dose-dependent blood flow-increasing action”. Further, in the experiment with C57BL/6 male mice, the locomotor activity result is reported as “significantly increased” and the wakening state result is on record as “the animals were in a wakening state”. Further, the “concentration at which astringency is exhibited in almost all cases” value (“concentration” for short) in the experiment with healthy volunteers is 10 µg/mL.

For `OC[C@H]1OC(Oc2cc3c(O)cc(O)cc3[o+]c2-c2ccc(O)c(O)c2)[C@H](O)[C@@H](O)[C@@H]1O` (stereo partly drawn) [2-(3,4-dihydroxyphenyl)-3-(D-glucopyranooxyl)chromenylium-3,5,7-triol], the “blood pressure change on co-administration with N-acetylcysteine” value in the experiment on Wistar male rats [2] (1 mg/kg of body weight + N-acetylcysteine 100 mg/kg for 14 days) is “disappeared”. Besides, the blood pressure entry with Wistar male rats [2] (1 mg/kg of body weight for 14 days, Day 7 and Day 14) is on record as “significantly decreased”. Besides, the “CD31 expression / neovascularization in extensor digitorum longus or soleus muscle” value in the experiment on Wistar male rats [3] is given as “a significant expression of CD31 was observed”.

As for `Oc1cc(O)c2cc(O)c(-c3ccc(O)c(O)c3)[o+]c2c1` [2-(3,4-dihydroxyphenyl)chromenylium-3,5,7-triol], the “fluctuation in the blood flow” value in the experiment with Wistar male rats [1] is recorded as “dose-dependent blood flow-increasing action”. For the same molecule, in the experiment on C57BL/6 male mice, the locomotor activity entry is given as “significantly increased” and the wakening state entry is given as “the animals were in a wakening state”. Besides, in the experiment with healthy volunteers, the “astringency felt on oral ingestion” value was “strong astringency” and the “concentration” value is 10 µg/mL.

Take `Oc1cc(O)c2cc(O)c(-c3cc(O)c(O)c(O)c3)[o+]c2c1` [2-(3,4,5-trihydroxylphenyl)chromenylium-3,5,7-triol]: the “fluctuation in the blood flow” value in the experiment with Wistar male rats [1] is on record as “dose-dependent blood flow-increasing action”. Besides, in the experiment on healthy volunteers, the “astringency felt on oral ingestion” value was “strong astringency” and the “concentration” value turned out to be 10 µg/mL.

As for `Oc1cc(O)c2c(c1)O[C@H](c1ccc(O)c(O)c1)[C@H](O)[C@H]2c1c(O)cc(O)c2c1O[C@H](c1ccc(O)c(O)c1)[C@H](O)[C@H]2c1c(O)cc(O)c2c1O[C@H](c1ccc(O)c(O)c1)[C@H](O)C2` [trimer], the “fluctuation in the blood flow” value in the experiment with Wistar male rats [1] is reported as “dose-dependent blood flow-increasing action”. In the experiment on C57BL/6 male mice, the locomotor activity result is reported as “significantly increased” and the wakening state entry is listed as “the animals were in a wakening state”. The “concentration” value in the experiment on healthy volunteers is 10 µg/mL.
